“And” between values parts separate entries of the source, which are not always exact repeats. Equal values may be shown once. Read-outs that look alike come from different tables or passages of the source. One block for each compound: values may come before it.
Assays:
[1] = system: rat intestine; experiment: four-site single-pass perfused rat intestinal model; format: in vivo; parameters: P*eff Duodenum / P*eff Jejunum / P*eff Ileum: unit not given here
Experimental: The absorptions of SSA, SSD and paeoniflorin in different intestinal segments were studied by the rat intestinal perfusion model. The concentrations of all the compounds of interest were 20 μmol·L^−1. The concentrations of the compounds in the perfusate samples were analyzed by UPLC or LC/MS, and then the P*eff and […] of SSA, SSD and paeoniflorin were calculated.
The perfusion protocol was approved by the Animal Ethics Committee of Jiangsu Provincial Academy of Chinese Medicine. The intestinal surgical procedures were described in our previous publications. Briefly, rats were anesthetized with an intra-muscular injection of urethane (0.5 g mL^−1) and placed on a heated surface maintained at its normal body temperature. Four segments of intestine, duodenum, jejunum, ileum, and colon (8–12 cm) were simultaneously cannulated with no disruption of circulation to the intestine, each with two cannulae. After cannulation, the small intestinal segments were placed carefully into the abdominal cavity, avoiding crimping or kinking of the segments. To keep the temperature of the perfusate constant, the inlet cannulate was kept warm by a 37 °C circulating water bath.
This is a single-pass perfusion method. Four segments of the intestine (duodenum, upper jejunum, terminal ileum, and colon) were perfused simultaneously with a perfusate containing the compound of interest using an infusion pump (Harvard Apparatus, Cambridge, MA, USA) at a flow rate of 0.2 mL min^−1. After a 30-min washout period, which is usually sufficient to achieve the steady-state absorption, four samples were collected from the outlet cannulae every 30 min afterward. After perfusion, the length of the intestine was measured as described previously. The outlet concentrations of the test compounds in the luminal perfusate were determined by HPLC or LC/MS.
The outlet concentrations of SSA and SSD were determined by LC/MS using a HPLC-Agilent 6410 Triple Quad (Agilent, Palo Alto, CA, USA) system equipped with an atmospheric-pressure chemical ionization source. The samples were separated on a Zorbax SB-C18 column (250 mm × 4.6 mm, 5 μm, Agilent) and Zorbax SB-C18 precolumn (4.6 × 12.5 mm, […], Agilent). The mobile phase consisted of acetonitrile and water (40:60, v/v), and the flow rate was 0.4 mL·min^−1. The column temperature was maintained at 35 °C and the injection volume was 20 μL. For MS analysis, atmospheric-pressure chemical ionization (APCI) source was operated in the negative ion mode. The selected parameters were as follows: drying nitrogen gas at 350 °C and a flow-rate of […]; nebulizer pressure at 20 p.s.i.g. (1 p.s.i. = 6894.76 Pa); vaporizer temperature at 325 °C; capillary voltage at 4,500 V and corona current at 4 μA. The chromatograms obtained for quantitation were recorded under time-scheduled SIM, with fragmentor voltages was set at 150 V. The scan range was from m/z 250 to m/z 1,000. The instrument was programmed for a scan dwell time of 200 ms. Intense […] ions at m/z 781 and m/z 255 were shown for SSA (SSD) and chrysin(internal standard). In general, these methods were selective and reproducible with day to day variability of less than 3%. The tested linear response range for SSA and SSD was 0.625 to 80 μM. The accuracy and precision were greater than 98%. The recovery of three different concentrations was around 90.91%~92.66%, and RSD was less than 5% (n = 5).
UPLC was used to analyze the concentration of paeoniflorin in the perfusate samples. The conditions were as follows: Waters Acquity™ system, with diode array detector and Empower software; column, Acquity UPLC BEH C-18 1.7 μm, 50 × 2.1 mm, (Waters, Milford, MA, USA); mobile phase A, water; mobile phase B, acetonitrile; gradient, 0~0.8 min, 15~22% B, 0.8~1.0 min, 22% B, 1.0~1.5 min, 35% B, 1.5~2.2 min, 70% B; flow rate, 0.4 mL·min^−1; wavelength 230 nm (paeoniflorin) and 245 nm (testosterone, the internal standard); column temperature, 35 °C; injection volume, 10 μL. […]

[2] = system: Caco-2 cell; parameters: method as in earlier work; details: cited from earlier work
[3] = co-administrated with SSA, colon
[4] = co-administrated with SSA, ileum
[5] = co-administration with SSD, colon
[6] = co-administration with SSD, ileum
[7] = compound alone, 20 μmol·L−1, colon, n = 4
[8] = compound alone, 20 μmol·L−1, duodenum, n = 4
[9] = compound alone, 20 μmol·L−1, ileum, n = 4
[10] = compound alone, 20 μmol·L−1, jejunum, n = 4

P*eff Colon ([1]; co-administrated with SSA (20:20 μmol·L−1), colon): 0.636 ± 0.034
P*eff Duodenum ([1]; co-administrated with SSA (20:20 μmol·L−1), duodenum): 0.279 ± 0.049
P*eff Ileum ([1]; co-administrated with SSA (20:20 μmol·L−1), ileum): 0.665 ± 0.053
P*eff Jejunum ([1]; co-administrated with SSA (20:20 μmol·L−1), jejunum): 0.263 ± 0.029
fold increase of 10% ABS vs individual compound [1, 3]: 1.25 fold
fold increase of P*eff vs individual compound [1, 3]: 1.90 fold
fold increase of 10% ABS vs individual compound [1, 4]: 1.40 fold
fold increase of P*eff vs individual compound [1, 4]: 2.11 fold and ~2.11 fold
P*eff Colon ([1]; co-administrated with SSD, colon): 0.696 ± 0.054
P*eff Duodenum ([1]; co-administrated with SSD, duodenum): 0.304 ± 0.048
P*eff Ileum ([1]; co-administrated with SSD, ileum): 0.731 ± 0.052
P*eff Jejunum ([1]; co-administrated with SSD, jejunum): 0.280 ± 0.051
10 cm % ABS Colon ([1]; co-administration with SSA (20:20 μmol·L−1), colon, n = 4): 12.07 ± 0.46 * %
10 cm % ABS Colon ([1]; co-administration with SSA (20:20 μmol·L−1), colon, n = 4, listed as paeoniflorin): 12.07 ± 0.46%
10 cm % ABS Duodenum ([1]; co-administration with SSA (20:20 μmol·L−1), duodenum, n = 4): 6.13 ± 1.82%
10 cm % ABS Ileum ([1]; co-administration with SSA (20:20 μmol·L−1), ileum, n = 4): 12.57 ± 0.36 * %
10 cm % ABS Ileum ([1]; co-administration with SSA (20:20 μmol·L−1), ileum, n = 4, listed as paeoniflorin): 12.57 ± 0.36%
10 cm % ABS Jejunum ([1]; co-administration with SSA (20:20 μmol·L−1), jejunum, n = 4): 4.78 ± 1.15%
fold increase of 10% ABS vs individual compound [1, 5]: 1.51 fold
fold increase of P*eff vs individual compound [1, 5]: 2.18 fold
10 cm % ABS Colon ([1]; co-administration with SSD, colon, n = 4): 13.48 ± 0.57 * %
10 cm % ABS Colon ([1]; co-administration with SSD, colon, n = 4, listed as paeoniflorin): 13.48 ± 0.57%
10 cm % ABS Duodenum ([1]; co-administration with SSD, duodenum, n = 4): 6.68 ± 1.91%
fold increase of 10% ABS vs individual compound [1, 6]: 1.63 fold
fold increase of P*eff vs individual compound [1, 6]: 2.42 fold and ~1.90 fold
10 cm % ABS Ileum ([1]; co-administration with SSD, ileum, n = 4): 13.75 ± 0.99 * %
10 cm % ABS Ileum ([1]; co-administration with SSD, ileum, n = 4, listed as paeoniflorin): 13.75 ± 0.99%
10 cm % ABS Jejunum ([1]; co-administration with SSD, jejunum, n = 4): 5.77 ± 1.39%
10 cm % ABS Colon [1, 7]: 5.37 ± 1.19%
P*eff Colon [1, 7]: 0.219 ± 0.051
P*eff Colon ([1]; compound alone, 20 μmol·L−1, colon, n = 4, listed as paeoniflorin): 0.219
10 cm % ABS Duodenum [1, 8]: 6.57 ± 0.98%
P*eff Duodenum [1, 8]: 0.268 ± 0.042
P*eff Duodenum ([1]; compound alone, 20 μmol·L−1, duodenum, n = 4, listed as paeoniflorin): 0.268
10 cm % ABS Ileum [1, 9]: 5.23 ± 0.49%
P*eff Ileum [1, 9]: 0.214 ± 0.021
P*eff Ileum ([1]; compound alone, 20 μmol·L−1, ileum, n = 4, listed as paeoniflorin): 0.214
10 cm % ABS Jejunum [1, 10]: 5.94 ± 0.70%
P*eff Jejunum [1, 10]: 0.243 ± 0.030
P*eff Jejunum ([1]; compound alone, 20 μmol·L−1, jejunum, n = 4, listed as paeoniflorin): 0.243
Compound: C[C@@]12C[C@@]3(O)O[C@@H](O1)[C@]1(COC(=O)c4ccccc4)[C@H]3C[C@@]12O[C@@H]1O[C@H](CO)[C@@H](O)[C@H](O)[C@H]1O [Paeoniflorin, paeoniflorin]
change of electric resistance values of Caco-2 cell membranes ([2]; after individual paeoniflorin was transported): no significant change
change of electric resistance values of Caco-2 cell membranes ([2]; paeoniflorin co-administered with saikosaponins): significantly decreased

P*eff Colon ([1]; co-administrated with paeoniflorin (20:20 μmol·L−1), colon): 0.215 ± 0.030
P*eff Duodenum ([1]; co-administrated with paeoniflorin (20:20 μmol·L−1), duodenum): 0.193 ± 0.028
P*eff Ileum ([1]; co-administrated with paeoniflorin (20:20 μmol·L−1), ileum): 0.347 ± 0.036
P*eff Jejunum ([1]; co-administrated with paeoniflorin (20:20 μmol·L−1), jejunum): 0.194 ± 0.023
10 cm % ABS Colon ([1]; co-administration with paeoniflorin (20:20 μmol·L−1), colon, n = 4): 3.51 ± 0.73%
10 cm % ABS Duodenum ([1]; co-administration with paeoniflorin (20:20 μmol·L−1), duodenum, n = 4): 4.11 ± 0.30%
10 cm % ABS Ileum ([1]; co-administration with paeoniflorin (20:20 μmol·L−1), ileum, n = 4): 5.20 ± 0.67%
10 cm % ABS Jejunum ([1]; co-administration with paeoniflorin (20:20 μmol·L−1), jejunum, n = 4): 3.49 ± 0.61%
10 cm % ABS Colon [1, 7]: 3.84 ± 0.10%
P*eff Colon [1, 7]: 0.239 ± 0.042
10 cm % ABS Duodenum [1, 8]: 3.75 ± 0.57%
P*eff Duodenum [1, 8]: 0.193 ± 0.028
10 cm % ABS Ileum [1, 9]: 6.26 ± 0.56 * %
P*eff Ileum [1, 9]: 0.361 ± 0.014 *
10 cm % ABS Jejunum [1, 10]: 3.91 ± 0.60%
P*eff Jejunum [1, 10]: 0.207 ± 0.012
Compound: C[C@H]1O[C@@H](O[C@H]2CC[C@@]3(C)[C@@H](CC[C@]4(C)[C@@H]3C=C[C@]35OC[C@@]6(CCC(C)(C)C[C@H]63)[C@@H](O)C[C@]54C)[C@]2(C)CO)[C@H](O)[C@@H](O[C@@H]2O[C@H](CO)[C@@H](O)[C@H](O)[C@H]2O)[C@H]1O [SSA, saikosaponin a]

From paper PMC6264397, “Interaction of the Main Components from the Traditional Chinese Drug Pair Chaihu-Shaoyao Based on Rat Intestinal Absorption” (Molecules, 2011)
